Molecules are shown by their SMILES. Counter-ions that a name gives are not always drawn.

FGFR1 active kinase, sequence (P11362 22-822): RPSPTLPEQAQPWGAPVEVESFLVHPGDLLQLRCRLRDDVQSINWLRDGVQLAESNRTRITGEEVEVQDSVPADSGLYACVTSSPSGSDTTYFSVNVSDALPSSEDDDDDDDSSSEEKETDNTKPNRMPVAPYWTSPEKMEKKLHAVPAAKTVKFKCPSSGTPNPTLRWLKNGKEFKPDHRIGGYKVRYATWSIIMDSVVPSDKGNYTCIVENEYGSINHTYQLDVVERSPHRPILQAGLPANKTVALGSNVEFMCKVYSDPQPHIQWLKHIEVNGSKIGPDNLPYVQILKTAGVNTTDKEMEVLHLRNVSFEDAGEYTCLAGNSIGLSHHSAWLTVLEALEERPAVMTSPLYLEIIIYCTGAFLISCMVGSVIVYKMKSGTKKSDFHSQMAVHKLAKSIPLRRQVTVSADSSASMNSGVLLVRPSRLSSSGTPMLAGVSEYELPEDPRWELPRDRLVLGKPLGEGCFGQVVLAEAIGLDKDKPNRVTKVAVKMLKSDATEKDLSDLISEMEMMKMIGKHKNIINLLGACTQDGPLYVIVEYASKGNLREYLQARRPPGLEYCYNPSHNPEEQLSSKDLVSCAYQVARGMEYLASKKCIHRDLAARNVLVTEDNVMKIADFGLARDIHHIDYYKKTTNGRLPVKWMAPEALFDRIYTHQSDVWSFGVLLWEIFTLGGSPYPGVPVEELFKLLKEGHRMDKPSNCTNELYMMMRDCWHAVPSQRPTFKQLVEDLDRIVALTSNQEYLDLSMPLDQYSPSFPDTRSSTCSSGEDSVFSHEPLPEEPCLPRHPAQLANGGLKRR

The target in the test is FGFR1 active kinase (Homo sapiens, UniProt P11362). Description: FGFR Kinase assay - Caliper. Note: 408 µM ATP. The class given is biochemical. The conditions noted are these: FGFR1 […], 408 uM ATP; mean of n as printed; read-out: FGFR Kinase assay - Caliper, IC50. On the procedure:
FGFR Kinase Assay—Caliper
To determine inhibition of FGFR activity, kinase assays were conducted using Caliper technology.
Kinase activity assays were performed in Greiner 384-well low volume plates, with a total reaction volume of 12 ul per well. Final concentration of FGFR1 active kinase in each reaction well was 7.2 nM. The substrate for each assay was a custom peptide with fluorescent tag (13 amino acids in length, […] with the fluorescene tag on the first K).
Compounds were serially diluted in 5% (v/v) DMSO, before being added to assay plates. The Enzyme (at 7.2 nM [final]) and Substrate (at 3.6 uM [final]) were added separately to the compound plates, in reaction buffer [comprising: 50 mM MOPS (Sigma, Catalogue No. M1254)—pH 6.5, 0.004% Triton (Sigma, Catalogue No. X-100), 2.4 mM DTT, 12 mM MgCl2, 408 uM ATP] resulting in a final DMSO concentration in the reaction mix of 0.8%.
Assay plates were incubated at room temperature for 1.5 h, before the reaction was stopped with the addition of buffer [comprising: 100 mM HEPES—pH7.5, 0.033% Brij-35 (Sigma Catalogue No. B4184), 0.22% Caliper Coating Reagent #3 (Caliper Life Sciences Catalogue No. 760050), 88 mM EDTA, 5% DMSO]. Stopped assay plates were then read using the Caliper LabChip® LC3000 (which uses microfludics to measure a shift in mobility between fluorescent labelled peptide and the FGFR1 kinase—phosphorylated form of this peptide).
In the assay, compounds were tested at a range of concentrations.
Percentage inhibition at 1 uM, as expressed herein, is a calculated value based on the curve fit that was generated experimentally. From the fitted curve plot, the effect of compound at a concentration of 1 uM was calculated as a percentage inhibition. The IC50 is the concentration of compound, which inhibits FGFR1 kinase activity by 50% in the context of this assay.
As to `COc1cc(CCc2cc(NC(=O)c3ccc(N4CCN(C5CCC5)CC4)cc3)n[nH]2)cc(OC)c1` [Example 89, 4-(4-Cyclobutylpiperazin-1-yl)-N-[5-[2-(3,5-dimethoxyphenyl)ethyl]-1H-pyrazol-3-yl]benzamide], the IC50 is 9 nM.
As to `COc1cc(CCc2cc(NC(=O)c3ccc(C(=O)N4CCN(C)CC4)cc3)n[nH]2)cc(OC)c1` [Example 86, N-[5-[2-(3,5-Dimethoxyphenyl)ethyl]-1H-pyrazol-3-yl]-4-(4-methylpiperazine-1-carbonyl)benzamide], the IC50 turned out to be 96 nM.
Consider `COc1cccc(CCc2cc(NC(=O)c3cc(O)ccn3)[nH]n2)c1` [Example 64, 4-Hydroxy-N-[5-[2-(3-methoxyphenyl)ethyl]-2H-pyrazol-3-yl]pyridine-2-carboxamide], for which the IC50 was 5000 nM.
Turning to `COc1cc(COc2cc(NC(=O)c3ccc(NCCN(C)C)cc3)[nH]n2)cc(OC)c1` [Example 70, N-[5-[(3,5-Dimethoxyphenyl)methoxy]-2H-pyrazol-3-yl]-4-(2-dimethylaminoethylamino)benzamide Hydrochloride], the 50% inhibitory concentration (IC50) came to 31 nM.
With `COc1cccc(CCc2cc(NC(=O)c3ccc(N4CCOCC4)nc3)[nH]n2)c1` [Example 32, N-[5-[2-(3-Methoxyphenyl)ethyl]-2H-pyrazol-3-yl]-6-morpholin-4-yl-pyridine-3-carboxamide], the half-maximal inhibitory concentration (IC50) was 27 nM.
On to `COc1cccc(CCc2cc(NC(=O)c3ccc(-n4cccn4)nc3)[nH]n2)c1` [Example 37, N-[5-[2-(3-Methoxyphenyl)ethyl]-2H-pyrazol-3-yl]-6-pyrazol-1-yl-pyridine-3-carboxamide], for which the IC50 is 69000 nM.
Regarding `COc1cc(CCc2cc(NC(=O)c3ccc(CN4CCc5ccc(C#N)cc5C4)cc3)n[nH]2)cc(OC)c1` [Example 52, 4-[(7-Cyano-3,4-dihydro-1H-isoquinolin-2-yl)methyl]-N-[5-[2-(3,5-dimethoxyphenyl)ethyl]-1H-pyrazol-3-yl]benzamide], the IC50 amounted to 486 nM.
To `COc1cc(COc2cc(NC(=O)c3cnc(N4CCN(C)CC4)nc3)n[nH]2)cc(OC)c1` [Example 73, N-[5-[(3,5-Dimethoxyphenyl)methoxy]-1H-pyrazol-3-yl]-2-(4-methylpiperazin-1-yl)pyrimidine-5-carboxamide] belongs 44 nM; to `COc1cccc(CCc2cc(NC(=O)c3ccc(-n4cncn4)cc3)[nH]n2)c1` [Example 36, N-[5-[2-(3-Methoxyphenyl)ethyl]-2H-pyrazol-3-yl]-4-(1,2,4-triazol-1-yl)benzamide], 660 nM; to `C=CCOC(=O)Nc1ccc(C(=O)Nc2cc(CCc3cccc(OC)c3)n[nH]2)cn1` [Example 35, Prop-2-enyl N-[5-[[5-[2-(3-methoxyphenyl)ethyl]-2H-pyrazol-3-yl]carbamoyl]pyridin-2-yl]carbamate], 76000 nM.
In the case of `COc1cc(CCc2cc(NC(=O)c3ccc(OCC4CCNCC4)cc3)n[nH]2)cc(OC)c1` [Example 44, N-[5-[2-(3,5-Dimethoxyphenyl)ethyl]-1H-pyrazol-3-yl]-4-(4-piperidylmethoxy)benzamide], the IC50 was determined as 25 nM.
On to `COc1cccc(CCc2cc(NC(=O)c3ccc(C#N)nc3)[nH]n2)c1` [Example 63, 6-Cyano-N-[5-[2-(3-methoxyphenyl)ethyl]-2H-pyrazol-3-yl]pyridine-3-carboxamide], for which the IC50 was 3770 nM.
Consider `COc1cc(CCc2cc(NC(=O)c3ccc(CCN4CCOCC4)cc3)n[nH]2)cc(OC)c1` [Example 56, N-[5-[2-(3,5-Dimethoxyphenyl)ethyl]-1H-pyrazol-3-yl]-4-(2-morpholin-4-ylethyl)benzamide], for which the IC50 came to 120 nM.
With `COc1cccc(CCc2cc(NC(=O)c3ccc(NC(=O)c4ccccc4)cc3)[nH]n2)c1` [Example 21, 4-Benzamido-N-[5-[2-(3-methoxyphenyl)ethyl]-2H-pyrazol-3-yl]benzamide], the IC50 stood at 231000 nM.
Turning to `COc1ccc(CCc2cc(NC(=O)c3ccc(N4CCN(C)CC4)cc3)[nH]n2)c(C)c1` [Example 79, N-[5-[2-(4-Methoxy-2-methyl-phenyl)ethyl]-2H-pyrazol-3-yl]-4-(4-methylpiperazin-1-yl)benzamide], the IC50 came out at 200 nM.
On to `COc1cccc(CCc2cc(NC(=O)c3ccc(CCN4CCCC4)nc3)[nH]n2)c1` [Example 65, N-[5-[2-(3-Methoxyphenyl)ethyl]-2H-pyrazol-3-yl]-6-(2-pyrrolidin-1-ylethyl)pyridine-3-carboxamide], for which the half-inhibitory concentration (IC50) is 240 nM.
`COc1cccc(CCc2cc(NC(=O)c3ccc(O)nc3)[nH]n2)c1` [Example 31, 6-Hydroxy-N-[5-[2-(3-methoxyphenyl)ethyl]-2H-pyrazol-3-yl]pyridine-3-carboxamide]: the IC50 worked out at 1050 nM.
On to `COc1cc(CCc2cc(NC(=O)c3ccc(OCCO)cc3)n[nH]2)cc(OC)c1` [Example 48, N-[5-[2-(3,5-Dimethoxyphenyl)ethyl]-1H-pyrazol-3-yl]-4-(2-hydroxyethoxy)benzamide], for which the IC50 was 39 nM.
With `CCOCCOc1ccc(C(=O)Nc2cc(CCc3cc(OC)cc(OC)c3)[nH]n2)cc1` [Example 42, N-[5-[2-(3,5-Dimethoxyphenyl)ethyl]-1H-pyrazol-3-yl]-4-(2-ethoxyethoxy)benzamide], the IC50 came to 75 nM.
To `COc1cc(CCc2cc(NC(=O)c3ccc(N(C)C)cc3)n[nH]2)cc(OC)c1` [Example 59, N-[5-[2-(3,5-Dimethoxyphenyl)ethyl]-1H-pyrazol-3-yl]-4-dimethylamino-benzamide] belongs 134 nM; to `CN(C)Cc1ccc(CCc2cc(NC(=O)c3ccc(N4CCN(C)CC4)cc3)n[nH]2)o1` [Example 76, N-[5-[2-[5-(Dimethylaminomethyl)-2-furyl]ethyl]-1H-pyrazol-3-yl]-4-(4-methylpiperazin-1-yl)benzamide], 340 nM.
Next, `COc1cc(CCc2cc(NC(=O)c3ccc(CN4CCCC(F)C4)cc3)n[nH]2)cc(OC)c1` (stereo not drawn) [Example 53, N-[5-[2-(3,5-Dimethoxyphenyl)ethyl]-1H-pyrazol-3-yl]-4-[(3-fluoro-1-piperidyl)methyl]benzamide]: 90 nM.
Take `COc1cc(CCc2cc(NC(=O)c3ccc(F)cc3)[nH]n2)cc(OC)c1` [Example 38, N-[5-[2-(3,5-Dimethoxyphenyl)ethyl]-2H-pyrazol-3-yl]-4-fluoro-benzamide]: the IC50 is 165 nM.
As to `COc1cc(CCc2cc(NC(=O)c3ccc(N4CCN5CCCCC5C4)cc3)[nH]n2)cc(OC)c1` (stereo not drawn) [Example 94, 4-(1,3,4,6,7,8,9,9a-Octahydropyrido[2,1-c]pyrazin-2-yl)-N-[5-[2-(3,5-dimethoxyphenyl)ethyl]-2H-pyrazol-3-yl]benzamide], the half-maximal inhibitory concentration (IC50) worked out at 81 nM.
To `COc1cccc(CCc2cc(NC(=O)c3ccc(-n4cnnn4)cc3)[nH]n2)c1` [Example 34, N-[5-[2-(3-Methoxyphenyl)ethyl]-2H-pyrazol-3-yl]-4-(tetrazol-1-yl)benzamide] belongs 1000 nM; to `COC(=O)c1ccc(C(=O)Nc2cc(CCc3cccc(OC)c3)n[nH]2)nc1` [Example 61, Methyl 6-[[5-[2-(3-methoxyphenyl)ethyl]-2H-pyrazol-3-yl]carbamoyl]pyridine-3-carboxylate], 68000 nM; to `COc1cccc(CCc2cc(NC(=O)c3ccc(-n4cccn4)cc3)[nH]n2)c1` [Example 25, N-[5-[2-(3-Methoxyphenyl)ethyl]-2H-pyrazol-3-yl]-4-pyrazol-1-yl-benzamide], 940 nM.

As usually defined, the IC50 is the concentration that inhibits the measured activity by half.
